Here are results for 22 compounds from patent US10550102B2, “Indane and indoline derivatives and the use thereof as soluble guanylate cyclase activators” (NOVARTIS AG, priority 2014, dated 2020).

Molecules are shown by their SMILES. Like-named read-outs stand apart in the source and are kept apart here. Bounds are passed on as bounds.

The target of assay [1] is soluble guanylate cyclase (human GUCYA3 and GUCYB3) overexpressed in CHO cells (Homo sapiens (Human), UniProt Q02153). As to the kind of experiment: CHO cellular assay (cGMP production, Cisbio cGMP HTRF kit). The assay is classed as cell-based. The settings on record: CHO GUCY clone 8E10, cGMP production, assay buffer with 1 mM IBMX and 20 uM ODQ, 1 h room temperature; minimum quantification limit 0.5 nM (listed 0.5 nM means ≤0.5 nM). In short, it runs like this: (§1)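 EC50 was derived by 4-parameter sigmoidal fit of cGMP levels, read by HTRF against a standard curve. Compounds were applied for 1 h at room temperature, in buffer with 20 uM ODQ, 1 mM IBMX and 0.1% BSA (0.5% DMSO final). The cells were a stable CHO-K1 line (clone 8E10) overexpressing human GUCYA3 and GUCYB3, seeded at 3000/well.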
(In general: Time-resolved FRET reads energy transfer from a long-lived donor to a nearby acceptor.)

For assay [2], the target named is soluble guanylate cyclase (human GUCYA3 and GUCYB3) overexpressed in CHO cells (Homo sapiens (Human), UniProt Q02108+Q02153). Described as above. The assay is classed as cell-based. The essentials:
as §1

[3] abbreviates: CHO GUCY clone 8E10, cGMP production, assay buffer with 1 mM IBMX and 20 uM ODQ, 1 h room temperature, minimum quantification limit 0.5 nM (listed 0.5 nM means ≤0.5 nM), read-out: EC50.

Sequence of soluble guanylate cyclase (human GUCYA3 and GUCYB3) overexpressed in CHO cells (Homo sapiens (Human), UniProt Q02108+Q02153) (Q02108 whole entry partner): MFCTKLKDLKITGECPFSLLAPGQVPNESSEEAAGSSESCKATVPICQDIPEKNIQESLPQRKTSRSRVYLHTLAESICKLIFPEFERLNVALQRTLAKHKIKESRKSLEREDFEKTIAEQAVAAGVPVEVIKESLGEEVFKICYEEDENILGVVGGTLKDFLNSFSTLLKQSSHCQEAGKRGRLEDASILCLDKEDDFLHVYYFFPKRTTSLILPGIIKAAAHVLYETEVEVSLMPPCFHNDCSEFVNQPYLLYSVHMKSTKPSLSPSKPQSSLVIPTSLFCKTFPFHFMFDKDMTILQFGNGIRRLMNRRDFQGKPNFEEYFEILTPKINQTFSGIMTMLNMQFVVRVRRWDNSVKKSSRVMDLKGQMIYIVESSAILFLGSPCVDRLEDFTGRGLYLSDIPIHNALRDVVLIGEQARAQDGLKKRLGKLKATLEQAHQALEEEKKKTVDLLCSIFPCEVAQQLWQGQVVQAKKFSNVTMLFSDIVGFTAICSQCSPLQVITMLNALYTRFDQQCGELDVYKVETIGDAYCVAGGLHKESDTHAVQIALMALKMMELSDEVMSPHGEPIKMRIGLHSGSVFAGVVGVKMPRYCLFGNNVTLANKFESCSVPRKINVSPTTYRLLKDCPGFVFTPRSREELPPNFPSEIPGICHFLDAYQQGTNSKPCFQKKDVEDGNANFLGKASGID
Sequence of soluble guanylate cyclase (human GUCYA3 and GUCYB3) overexpressed in CHO cells (Homo sapiens (Human), UniProt Q02108+Q02153) (Q02153 whole entry): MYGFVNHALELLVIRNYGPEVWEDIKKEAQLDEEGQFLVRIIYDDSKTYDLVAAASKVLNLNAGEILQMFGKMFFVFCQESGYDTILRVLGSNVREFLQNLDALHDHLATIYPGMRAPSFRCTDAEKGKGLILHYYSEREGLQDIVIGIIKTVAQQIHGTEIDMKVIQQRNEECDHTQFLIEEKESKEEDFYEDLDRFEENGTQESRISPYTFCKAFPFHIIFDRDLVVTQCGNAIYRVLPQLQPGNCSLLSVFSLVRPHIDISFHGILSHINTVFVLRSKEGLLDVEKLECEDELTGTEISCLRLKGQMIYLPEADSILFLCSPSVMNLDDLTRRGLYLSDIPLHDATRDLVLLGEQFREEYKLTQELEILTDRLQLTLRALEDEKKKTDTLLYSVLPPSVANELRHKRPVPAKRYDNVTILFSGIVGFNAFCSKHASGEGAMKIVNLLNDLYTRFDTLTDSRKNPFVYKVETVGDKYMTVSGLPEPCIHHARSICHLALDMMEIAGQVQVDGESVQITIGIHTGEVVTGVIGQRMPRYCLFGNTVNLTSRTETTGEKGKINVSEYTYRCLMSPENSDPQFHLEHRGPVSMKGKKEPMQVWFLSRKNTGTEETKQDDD
Sequence of soluble guanylate cyclase (human GUCYA3 and GUCYB3) overexpressed in CHO cells (Homo sapiens (Human), UniProt Q02153) (Q02108 whole entry partner): as the sequence (Q02108 whole entry partner) above
Sequence of soluble guanylate cyclase (human GUCYA3 and GUCYB3) overexpressed in CHO cells (Homo sapiens (Human), UniProt Q02153) (Q02153 whole entry): as the sequence (Q02153 whole entry) above

Take `CCc1cc(CN2CC(C)c3cccc(-c4cccc(-n5ncc(C(=O)O)c5CC)n4)c32)ccc1C1CCN(C(=O)[C@H](C)O)CC1` (single isomer, unassigned) [Example 17b]: the EC50 – broadly, the concentration giving half of the maximal effect – in assay [1] was ≤ 0.5 nM.

With `CCc1cc(O[C@H]2CCc3cccc(-c4cccc(-n5ncc(C(=O)O)c5CC)n4)c32)ccc1C1CCN(C(=O)C(C)CCO)CC1` (single isomer, unassigned) [Example 32b], in assay [1], the EC50 is ≤ 0.5 nM.

For the compound `O=C(O)c1cnn(-c2cccc(-c3cccc4c3N(Cc3ccc5c(c3)CCN(Cc3ccccn3)C5)CC4)n2)c1C(F)(F)F` [Example 25, 1-(6-(1-((2-(Pyridin-2-ylmethyl)-1,2,3,4-tetrahydroisoquinolin-6-yl)methyl)indolin-7-yl)pyridin-2-yl)-5-(trifluromethyl)-1H-pyrazole-4-carboxylic Acid], the EC50 in assay [2] (setting [3]) was found to be 2.4 nM. Take `O=C(O)c1cnn(-c2cccc(-c3cccc4ccn(Cc5ccc(C6CCN(C(=O)C7CC7)CC6)cc5)c34)n2)c1C(F)(F)F` [Example 26, 1-(6-(1-(4-(1-(Cyclopropanecarbonyl)piperidin-4-yl)benzyl)-1H-indol-7-yl)pyridin-2-yl)-5-(trifluoromethyl)-1H-pyrazole-4-carboxylic Acid]: the EC50 in assay [2] (setting [3]) was found to be 21 nM. Regarding `CCc1cc(Cn2ccc3cccc(-c4cccc(-n5ncc(C(=O)O)c5CC)n4)c32)ccc1C1CCN(C(=O)C2CC2)CC1` [Example 27], in assay [2] (setting [3]), the 50% effective concentration (EC50) was ≤ 0.5 nM. Regarding `CCOC(=O)N1CCC(c2ccc(O[C@H]3CCc4cccc(-c5cccc(-n6ncc(C(=O)O)c6CC)n5)c43)cc2CC)CC1` [Example 29, (S)-1-(6-(3-(4-(1-(Ethoxycarbonyl)piperidin-4-yl)-3-ethylphenoxy)-2,3-dihydro-1H-inden-4-yl)pyridin-2-yl)-5-ethyl-1H-pyrazole-4-carboxylic Acid], the EC50 in assay [2] (setting [3]) is 1 nM. `CCc1cc(O[C@H]2CCc3cccc(-c4cccc(-n5ncc(C(=O)O)c5CC)n4)c32)ccc1C1CCN(C(=O)[C@H](C)O)CC1` [Example 30]: in assay [2] (setting [3]), the EC50 is ≤ 0.5 nM. For `CCC[C@H](O)C(=O)N1CCC(c2ccc(O[C@H]3CCc4cccc(-c5cccc(-n6ncc(C(=O)O)c6CC)n5)c43)cc2CC)CC1` [Example 31-1], the EC50 in assay [2] (setting [3]) was ≤ 0.5 nM. On the same count and under the same terms, the figure for `CCc1cc(O[C@H]2CCc3cccc(-c4cccc(-n5ncc(C(=O)O)c5CC)n4)c32)ccc1C1CCN(C(=O)[C@@H](O)CC)CC1` [Example 31-2] is ≤ 0.5 nM. As for `CCc1cc(O[C@H]2CCc3cccc(-c4cccc(-n5ncc(C(=O)O)c5CC)n4)c32)ccc1C1CCN(C(=O)[C@@H](C)CO)CC1` [Example 31-3, 5-Ethyl-1-(6-((S)-3-(3-ethyl-4-(1-((S)-3-hydroxy-2-methylpropanoyl)piperidin-4-yl)phenoxy)-2-3-dihydro-1H-inden-4-yl)pyridin-2-yl)-1H-pyrazole-4-carboxylic acid], the EC50 in assay [2] (setting [3]) was ≤ 0.5 nM. Still for that read-out and setting: to `CCc1cc(O[C@H]2CCc3cccc(-c4cccc(-n5ncc(C(=O)O)c5CC)n4)c32)ccc1C1CCN(C(=O)C2(O)CCC2)CC1` [Example 31-4, (S)-5-Ethyl-1-(6-(3-(3-ethyl-4-(1-(1-hydroxycyclobutanecarbonyl)piperidin-4-yl)phenoxy)-2,3-dihydro-1H-inden-4-yl)pyridin-2-yl)-1H-pyrazole-4-carboxylic acid] belongs ≤ 0.5 nM.

On to `CCc1cc(O[C@H]2CCc3cccc(-c4cccc(-n5ncc(C(=O)O)c5CC)n4)c32)ccc1C1CCN(C(=O)C2(O)CC2)CC1` [Example 33, (S)-5-ethyl-1-(6-(3-(3-ethyl-4-(1-(1-hydroxycyclopropanecarbonyl)piperidin-4-yl)phenoxy)-2,3-dihydro-1H-inden-4-yl)pyridin-2-yl)-1H-pyrazole-4-carboxylic Acid], for which the EC50 in assay [2] (setting [3]) was ≤ 0.5 nM.

For `CCOC(=O)N1CCC(c2ccc(NC3CCc4cccc(-c5cccc(-n6ncc(C(=O)O)c6C)n5)c43)c(C)c2)CC1` (stereo not shown) [Example 52-4], the EC50 in assay [2] (setting [3]) is ≤ 0.5 nM. As to `COCCOC(=O)N1CCC(c2ccc(NC3CCc4cccc(-c5cccc(-n6ncc(C(=O)O)c6C)n5)c43)c(C)c2)CC1` (stereo not shown) [Example 52-5], in assay [2] (setting [3]), the EC50 was 1 nM.

For `C=C(C)OC(=O)N1CCC(c2ccc(NC3CCc4cccc(-c5cccc(-n6ncc(C(=O)O)c6C)n5)c43)c(C)c2)CC1` (stereo not shown) [Example 52-6, 5-Methyl-1-(6-(3-((2-methyl-4-(1-((prop-1-en-2-yloxy)carbonyl)piperidin-4-yl)phenyl)amino)-2,3-dihydro-1H-inden-4-yl)pyridin-2-yl)-1H-pyrazole-4-carboxylic acid], the EC50 in assay [2] (setting [3]) was determined as 1.4 nM. Consider `CCc1cc(O[C@H]2CCc3cccc(-c4cccc(-n5ncc(C(=O)O)c5CC)n4)c32)ccc1C1CCN(C(=O)OCc2ccccc2)CC1` [Example 64-1, (S)-1-(6-(3-(4-(1-((Benzyloxy)carbonyl)pipendin-4-yl)-3-ethylphenoxy)-2,3-dihydro-1H-inden-4-yl)pyridin-2-yl)-5-ethyl-1H-pyrazole-4-carboxylic acid], for which the EC50 in assay [2] (setting [3]) was 2 nM. Compound `CCc1cc(O[C@H]2CCc3cccc(-c4cccc(-n5ncc(C(=O)O)c5CC)n4)c32)ccc1C1CCN(C(=O)OCC(C)C)CC1` [Example 64-2, (S)-5-Ethyl-1-(6-(3-(3-ethyl-4-(1-(isobutoxycarbonyl)piperidin-4-yl)phenoxy)-2,3-dihydro-1H-inden-4-yl)pyridin-2-yl)-1H-pyrazole-4-carboxylic acid] displayed an EC50 in assay [2] (EC50 (nM)) of 3 nM. As to `CCc1cc(O[C@H]2CCc3cccc(-c4cccc(-n5ncc(C(=O)O)c5CC)n4)c32)ccc1C1CCN(C(=O)OC(C)C)CC1` [Example 64-3, (S)-5-Ethyl-1-(6-(3-(3-ethyl-4-(1-(isopropoxycarbonyl)piperidin-4-yl)phenoxy)-2,3-dihydro-1H-inden-4-yl)pyridin-2-yl)-1H-pyrazole-4-carboxylic acid], it took 1 nM to reach a half-maximal effect in assay [2] (EC50 (nM)) (EC50). For `CCCOC(=O)N1CCC(c2ccc(O[C@H]3CCc4cccc(-c5cccc(-n6ncc(C(=O)O)c6CC)n5)c43)cc2CC)CC1` [Example 64-4, (S)-5-Ethyl-1-(6-(3-(3-ethyl-4-(1-(propoxycarbonyl)piperidin-4-yl)phenoxy)-2,3-dihydro-1H-inden-4-yl)pyridin-2-yl)-1H-pyrazole-4-carboxylic acid], the EC50 in assay [2] (EC50 (nM)) was ≤ 0.5 nM. Regarding `C=CCOC(=O)N1CCC(c2ccc(O[C@H]3CCc4cccc(-c5cccc(-n6ncc(C(=O)O)c6CC)n5)c43)cc2CC)CC1` [Example 64-5, (S)-1-(6-(3-(4-(1-((Allyloxy)carbonyl)piperidin-4-yl)-3-ethylphenoxy)-2,3-dihydro-1H-inden-4-yl)pyridin-2-yl)-5-ethyl-1H-pyrazole-4-carboxylic acid], the EC50 in assay [2] (EC50 (nM)) is ≤ 0.5 nM. Regarding `CCc1cc(O[C@H]2CCc3cccc(-c4cccc(-n5ncc(C(=O)O)c5CC)n4)c32)ccc1C1CCN(C(=O)OCC2CC2)CC1` [Example 64-6, (S)-1-(6-(3-(4-(1-((Cyclopropylmethoxy)carbonyl)piperidin-4-yl)-3-ethylphenoxy)-2,3-dihydro-1H-inden-4-yl)pyridin-2-yl)-5-ethyl-1H-pyrazole-4-carboxylic acid], in assay [2] (setting [3]), the EC50 stood at 1.4 nM. For the compound `CCc1cc(O[C@H]2CCc3cccc(-c4cccc(-n5ncc(C(=O)O)c5CC)n4)c32)ccc1C1CCN(S(C)(=O)=O)CC1` [Example 64-8, (S)-5-Ethyl-1-(6-(3-(3-ethyl-4-(1-(methylsulfonyl)piperidin-4-yl)phenoxy)-2,3-dihydro-1H-inden-4-yl)pyridin-2-yl)-1H-pyrazole-4-carboxylic acid], the EC50 in assay [2] (setting [3]) is ≤ 0.5 nM.
